Reference: patent publication US20190365744A1, “IMPROVED MULTI TYROSINE KINASE INHIBITOR THERAPY” (FRAUNHOFER-GESELLSCHAFT ZUR FORDERUNG DER ANGEWANDTEN …, priority 2017, published 2019)

System: CXCR4
Experiment: CXCR4 PET/CT with tracer 68Ga-Pentixafor in patients with idiopathic pulmonary fibrosis, prior to and under therapy
Type: in vivo, human
Settings: for CXCR4 signal (PET/CT): patients with idiopathic pulmonary fibrosis, after onset of therapy vs prior to therapy, 68Ga-Pentixafor tracer
Experimental: Patients were diagnosed with clinical idiopathic pulmonary fibrosis according to diagnostic criteria of the American Thoracic Society/European Respiratory Society.
Pentixafor synthesis. Material for synthesis of ^68Ga-pentixafor (CPCR4.2) was provided by Scintomics (Fürstenfeldbruck, Germany) Synthesis was performed as previously described (18, 19), using a ^68Ge/^68Ga-generator (Eckert&Ziegler, Braunschweig, Germany) connected to a Scintomics GRP synthesis module.
Clinical Imaging. All studies were obtained on a dedicated PET/CT system (Biograph mCT 128 Flow; Siemens, Knoxville, USA), equipped with an extended field-of-view LSO PET component, a 128-slice spiral CT component, and a magnetically driven table optimized for continuous scanning The patients received an intravenous injection of 110 (IQR, 80-120) MBq of ^68Ga-pentixafor. Imaging started with a low-dose non-enhanced helical CT (120 kV, mA modulated, pitch 1.2, reconstructed axial slice thickness 5.0 mm) performed for attenuation correction of PET acquisitions. PET images of the whole body were then acquired using continuous bed motion (CBM) at a speed of 2.0 mm/s for head and neck and 0.5 mm/s for chest and abdomen at 60 min post injection. All studies were reconstructed using time-of-flight and point-spread function information combined with an iterative algorithm (Ultra HD®, Siemens Healthcare; 2 iterations, 21 subsets, matrix 200; zoom 1.0; Gaussian filter of 5.0). In addition, a non-contrast breath-hold high-resolution CT (HRCT) (120 kV, mA modulated) of the chest was used to obtain contiguous 1.0-mm cross-sectional slices throughout the thorax.
PET/CT image analysis. Transaxial PET, CT and fused PET/CT 68Ga-pentixafor PET/CT images were analyzed on a dedicated workstation equipped with a commercial software package (syngo.via; Siemens Healthcare).
PET images were visually evaluated for the presence of elevated radiotracer uptake in lung parenchyma in areas of usual interstitial pneumonia (UIP) pattern on CT. Then, ^68Ga-Pentixafor uptake was quantified using a 3D Volume-of-Interest (VOI) technique with isocontour thresholding, yielding mean and peak standardized uptake values (SUVmean and SUVpeak). Separate measurements were performed in three subpleural regions in each lung lobe, and values for each region were then averaged for the subsequent statistical analysis. Tracer uptake in mediastinal and hilar lymph nodes was assessed in three thoracic lymph node stations using 3D VOIs with isocontour thresholding, and also averaged for the subsequent statistical analysis. In addition, tracer uptake (SUVmean) in spleen and bone marrow was […], recorded to evaluate systemic interactions.
Patients suffering from idiopathic pulmonary fibrosis were investigated for CXCR4 abundance by PET/CT using a CXCR4 tracer ^68Ga-Pentixafor as described.
The mean signal intensities (SUVmean) were determined in different regions, i.e. upper-, middle and lower fields. The volume of CXCR4-positive areas were determined and put into relation to the total volume of the respective areas. The extent of the fibrotic areas were judged in PET/CT and the SUVmean was determined for mediastinal lymph nodes, spleen and bone marrow.

Compound | CXCR4 signal, single further patient (one of 5 analyzed patients under treatment) | CXCR4 signal intensity, single patient with familial idiopathic pulmonary fibrosis (one of 5 analyzed patients, unclear whether drug was taken on the day of investigation) | CXCR4 signal (PET/CT) | CXCR4 signal (PET/CT) (listed as Nitedanib) | patients showing a strong increase in CXCR4 signal intensity in the fibrotic areas in the lung (under treatment, these patients received 150 mg in the morning of the PET/CT day) | signal intensities for CXCR4 (cohort of 12 patients with idiopathic pulmonary fibrosis under treatment vs baseline) | strong increase of CXCR4 signal in pulmonary fibrotic areas (patients with idiopathic pulmonary fibrosis under treatment)
COC(=O)c1ccc2c(c1)NC(=O)/C2=C(\Nc1ccc(N(C)C(=O)CN2CCN(C)CC2)cc1)c1ccccc1 [Nintedanib] | constant | decrease | increase | significant increase | 3 out of 5 | – | –
Cc1ccc(=O)n(-c2ccccc2)c1 [Pirfenidone] | – | – | – | – | – | remained constant or even decreased | not observed
